From US20250214942A1, “INHIBITORS OF RECEPTOR INTERACTING PROTEIN KINASE I FOR THE TREATMENT OF DISEASE” (Board of Regents, The University of Texas System, priority 2019, published 2025)
Read-outs that look alike come from different tables or passages of the source.

What was measured:
[1] = system: human monocytic cell line U937; assay: Human U937 cellular necroptosis assay (TNFalpha + z-VAD-FMK, Cell Titer-Glo viability); assay type: cell-based; details: U937 cells, 25 ng/mL human TNFalpha + 25 μM z-VAD-FMK, read-out: hU937 Avg IC50
Method in brief: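 Readout is CellTiter-Glo 2.0 luminescence after 22 h at 37° C with compound, in cells triggered by human TNFalpha (25 ng/mL) and z-VAD-FMK (25 μM) in phenol red-free RPMI/10% FBS. Values are run-averaged IC50s from a four-parameter logistic curve.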

RIPK1 = RIPK1 (Homo sapiens (Human), UniProt Q13546); assay: ADP-Glo kinase assay (RIPK1 activity, conversion of ATP to ADP); assay type: biochemical; details: 5 nM RIPK1, 50 μM ATP, 6 h reaction; read-out: RIPK1 Enzyme Avg IC50
Sequence of RIPK1 (Q13546 1-327): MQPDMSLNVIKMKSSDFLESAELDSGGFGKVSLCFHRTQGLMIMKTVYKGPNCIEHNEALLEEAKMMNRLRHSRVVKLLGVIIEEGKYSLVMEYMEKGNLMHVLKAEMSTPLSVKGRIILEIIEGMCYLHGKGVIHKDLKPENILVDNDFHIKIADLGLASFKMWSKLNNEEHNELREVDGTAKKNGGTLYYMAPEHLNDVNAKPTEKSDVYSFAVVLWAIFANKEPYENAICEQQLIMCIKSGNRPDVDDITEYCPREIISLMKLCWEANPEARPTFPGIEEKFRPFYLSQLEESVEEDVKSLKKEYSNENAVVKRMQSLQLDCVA
Method in brief: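 RIPK1 (5 nM final) was preincubated 10 min at rt with 1:3-diluted compounds in HEPES pH 7.5/MgCl2/DTT/BSA/CHAPS buffer. ATP (50 μM final) was then added for 6 h, and ADP formed was read by ADP-Glo luminescence. IC50 values came from four-parameter logistic fitting.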

Row | IC50 (RIPK1) | Compound | IC50 ([1]; 22 h) | IC50 ([1]; Homo sapiens, U-937, 22 h)
1 | 11 nM | O=C(N1N=CCC1c1cc(F)cc(F)c1)C12CC(COc3ccc(Br)cc3Cl)(C1)C2 (centres unmarked) [Example 330, (3-((4-bromo-2-chloro-phenoxy)methyl)bicyclo-[1.1.1]pentan-1-yl)(5-(3,5-difluorophenyl)-4,5-dihydro-1H-pyrazol-1-yl)methanone] |  | 21 nM
2 | 20 nM | O=C(N1N=CCC1c1cc(F)cc(F)c1)C12CC(Cn3ccc4cncnc43)(C1)C2 (centres unmarked) [Example 136, (3-((7H-pyrrolo[2,3-d]-pyrimidin-7-yl)methyl)-bicyclo[1.1.1]pentan-1-yl)(5-(3,5-difluorophenyl)-4,5-dihydro-1H-pyrazol-1-yl)-methanone] |  | 58 nM
3 | 670 nM | Cc1ccc(C2CC=NN2C(=O)C23CC(Cn4cc(C#N)cn4)(C2)C3)nc1 (centres unmarked) [Example 171, 1-((3-(5-(5-methylpyridin-2-yl)-4,5-dihydro-1H-pyrazole-1-carbonyl)bicyclo[1.1.1]-pentan-1-yl)methyl)-1H-pyrazole-4-carbonitiile] |  | 3700 nM
4 | 54 nM | N#Cc1ccc2c(cnn2CC23CC(C(=O)N4CCC4c4ccccc4)(C2)C3)c1 (centres unmarked) [Example 177, 1-((3-(2-phenylazetidine-1-carbonyl)bicyclo[1.1.1]-pentan-1-yl)methyl)-1H-indazole-5-carbonitrile] |  | 536 nM
5 | 242 nM | Cc1cnc(C2CC=NN2C(=O)C23CC(Cn4ncc5ncccc54)(C2)C3)cn1 (centres unmarked) [Example 151, (3-((1H-pyrazolo[4,3-b]-pyridin-1-yl)methyl)bicyclo-[1.1.1]pentan-1-yl)(5-(5-methylpyrazin-2-yl)-4,5-dihydro-1H-pyrazol-1-yl)methanone] |  | 1190 nM
6 | 486 nM | O=C(N1CC(F)CC1c1cccc(F)c1)C12CC(COc3nccc(Cl)n3)(C1)C2 (centres unmarked) [Example 101, (3-(((4-chloropyrimidin-2-yl)oxy)methyl)bicyclo[1.1.1]-pentan-1-yl)(4-fluoro-2-(3-fluorophenyl)pyrrolidin-1-yl)methanone] |  | 1340 nM
7 | 20 nM | O=C(N1N=CCC1c1cc(F)cc(F)c1)C12CC(Cn3ccc4cc(F)ccc43)(C1)C2 (centres unmarked) [Example 133, (5-(3,5-difluorophenyl)-4,5-dihydro-1H-pyrazol-1-yl)(3-((5-fluoro-1H-indol-1-yl)-methyl)bicyclo[1.1.1]pentan-1-yl)methanone] |  | 10 nM
8 | 528 nM | N#Cc1ccc2c(cnn2CC23CC(C(=O)N4CCC4c4cccc(Cl)c4Cl)(C2)C3)c1 (centres unmarked) [Example 260, 1-((3-(2-(2,3-dichlorophenyl)-azetidine-1-carbonyl)bicyclo-[1.1.1]pentan-1-yl)methyl)-1H-indazole-5-carbonitrile] |  | 5600 nM

Further lines, the compound ahead of its results:

Row | Compound | IC50 (RIPK1) | IC50 ([1]; 22 h) | IC50 ([1]; Homo sapiens, U-937, 22 h)
9 | (5-(3,5-difluorophenyl)-4,5-dihydro-1H-pyrazol-1-yl)(3-((6-fluoro-1H-benzo[d]-imidazol-1-yl)methyl)-bicyclo[1.1.1]pentan-1-yl)methanone and (5-(3,5-difluorophenyl)-4,5-dihydro-1H-pyrazol-1-yl)(3-((5-fluoro-1H-benzo[d]-imidazol-1-yl)methyl)-bicyclo[1.1.1]pentan-1-yl)methanone [Example 192] | 80 nM | 197 nM | 
10 | N#Cc1cccc2c1cnn2CC12CC(C(=O)N3N=CCC3c3cc(F)cc(F)c3)(C1)C2 (centres unmarked) [Example 67, 1-((3-(5-(3,5-difluorophenyl)-4,5-dihydro-1H-pyrazole-1-carbonyl)bicyclo[1.1.1]-pentan-1-yl)methyl)-1H-indazole-4-carbonitrile] | 19 nM |  | 54 nM
11 | O=C(N1CC(F)CC1c1cccc(F)c1)C12CC(COc3ccccc3)(C1)C2 (centres unmarked) [Example 31, (4-Fluoro-2-(3-fluorophenyl)pyrrolidin-1-yl)(3-(phenoxymethyl)-bicyclo[1.1.1]pentan-1-yl)methanone] | 55 nM |  | 462 nM
12 | COc1ccc2cn(CC34CC(C(=O)N5N=CCC5c5cc(F)cc(F)c5)(C3)C4)nc2c1 (centres unmarked) [Example 57, (5-(3,5-difluorophenyl)-4,5-dihydro-1H-pyrazol-1-yl)(3-((6-methoxy-2H-indazol-2-yl)methyl)bicyclo[1.1.1]-pentan-1-yl)methanone] | 32 nM |  | 110 nM
13 | Cc1cnc(C2CC=NN2C(=O)C23CC(Cn4ncc5cc(C#N)ccc54)(C2)C3)cn1 (centres unmarked) [Example 49, 1-((3-(5-(5-Methylpyrazin-2-yl)-4,5-dihydro-1H-pyrazole-1-carbonyl)-bicyclo[1.1.1]pentan-1-yl)methyl)-1H-indazole-5-carbonitrile] | 22 nM |  | 67 nM
14 | O=C(N1N=CCC1c1cc(F)cc(F)c1)C12CC(Cn3ncc4cccnc43)(C1)C2 (centres unmarked) [Example 89, (3-((1H-pyrazolo[3,4-b]-pyridin-1-yl)methyl)bicyclo-[1.1.1]pentan-1-yl)(5-(3,5-difluorophenyl)-4,5-dihydro-1H-pyrazol-1-yl)methanone] | 25 nM |  | 137 nM
15 | NC(=O)c1cc(OCC23CC(C(=O)N4N=CCC4c4cc(F)cc(F)c4)(C2)C3)ncn1 (centres unmarked) [Example 8, 6-((3-(5-(3,5-Difluorophenyl)-4,5-dihydro-1H-pyrazole-1-carbonyl)bicyclo[1.1.1]pentan-1-yl)methoxy)pyrimidine-4-carboxamide] | 28 nM |  | 51 nM
16 | O=C(N1N=CCC1c1cc(F)cc(F)c1)C12CC(Cn3nc4ccc(F)cc4n3)(C1)C2 (centres unmarked) [Example 85, (5-(3,5-difluorophenyl)-4,5-dihydro-1H-pyrazol-1-yl)(3-((5-fluoro-2H-benzo[d]-[1,2,3]triazol-2-yl)methyl)-bicyclo[1.1.1]pentan-1-yl)-methanone] | 18 nM |  | 24 nM
17 | CC(Oc1cc(Cl)ncn1)C12CC(C(=O)N3CC(F)CC3c3cccc(F)c3)(C1)C2 (centres unmarked) [Example 43, (3-(1-((6-Chloropyrimidin-4-yl)oxy)ethyl)bicyclo[1.1.1]pentan-1-yl)(4-fluoro-2-(3-fluorophenyl)pyrrolidin-1-yl)methanone] | 1700 nM |  | 4210 nM
18 | Cc1ncnc(OCC23CC(C(=O)N4CC(F)CC4c4cccc(F)c4)(C2)C3)c1F (centres unmarked) [Example 93, (4-fluoro-2-(3-fluorophenyl)-pyrrolidin-1-yl)(3-(((5-fluoro-6-methylpyrimidin-4-yl)oxy)methyl)bicyclo[1.1.1]-pentan-1-yl)methanone] | 79 nM |  | 398 nM
19 | O=C(N1N=CCC1c1cc(F)cc(F)c1)C12CC(C(F)c3cccc(Cl)c3)(C1)C2 (centres unmarked) [Example 42, (3-((3-chlorophenyl)fluoromethyl)bicyclo[1.1.1]pentan-1-yl)(5-(3,5-difluorophenyl)-4,5-dihydro-1H-pyrazol-1-yl)methanone] | 31 nM |  | 51 nM
20 | CC1=NN(C(=O)C23CC(Cn4cc(C#N)cn4)(C2)C3)C(c2cc(F)cc(F)c2)C1 (centres unmarked) [Example 47, 1-((3-(5-(3,5-difluorophenyl)-3-methyl-4,5-dihydro-1H-pyrazole-1-carbonyl)-bicyclo[1.1.1]pentan-1-yl)methyl)-1H-pyrazole-4-carbonitrile] | 93 nM |  | 1110 nM
21 | COc1ccc2cnn(CC34CC(C(=O)N5N=CCC5c5cc(F)cc(F)c5)(C3)C4)c2c1 (centres unmarked) [Example 73, (5-(3,5-difluorophenyl)-4,5-dihydro-1H-pyrazol-1-yl)(3-((6-methoxy-1H-indazol-1-yl)methyl)bicyclo[1.1.1]-pentan-1-yl)methanone] | 111 nM |  | 527 nM
22 | O=C(N1CC(F)CC1c1cccc(F)c1)C12CC(Cn3ncc4cc(F)ccc43)(C1)C2 (centres unmarked) [Example 27, (3-((5-Fluoro-1H-indazol-1-yl)methyl)bicyclo[1.1.1]pentan-1-yl)(4-fluoro-2-(3-fluorophenyl)pyrrolidin-1-yl)methanone] | 14 nM |  | 167 nM
23 | O=C(N1N=CCC1c1cc(F)cc(F)c1)C12CC(Cn3cc4ncccc4n3)(C1)C2 (centres unmarked) [Example 59, (3-((2H-pyrazolo[4,3-b]-pyridin-2-yl)methyl)bicyclo-[1.1.1]pentan-1-yl)(5-(3,5-difluorophenyl)-4,5-dihydro-1H-pyrazol-1-yl)methanone] | 43 nM |  | 226 nM
24 | O=C(N1N=CCC1c1cc(F)ccc1F)C12CC(Cn3ncc4c(F)cccc43)(C1)C2 (centres unmarked) [Example 84, (5-(2,5-difluorophenyl)-4,5-dihydro-1H-pyrazol-1-yl)(3-((4-fluoro-1H-indazol-1-yl)-methyl)bicyclo[1.1.1]pentan-1-yl)methanone] | 22 nM |  | 3 nM
25 | N#CCC12CC(C(=O)N3N=CCC3c3cc(F)cc(F)c3)(C1)C2 (centres unmarked) [Example 18, 2-(3-(5-(3,5-Difluorophenyl)-4,5-dihydro-1H-pyrazole-1-carbonyl)-bicyclo[1.1.1]pentan-1-yl)acetonitrile] | 70 nM |  | 284 nM
